Experiment [1] concerns the target T1, BtGH84 (Bacteroides thetaiotaomicron, UniProt Q89ZI2).
T1 construct: made in house
The experiment in a line: 4MU-GlcNAc cleavage assay (fluorescent kinetic enzyme activity assay). The format is biochemical. The following applies: in the presence of 4mM activator 2 versus absence. Here is the method: (§1) AC50 measurements of fragment activators were performed using a fluorescent kinetic assay. Assays were carried out in a 96 well plate (Black Nunc F96 MicroWell Plates) at 25°C in a total volume of 100 μl per well, buffer (50 mM MES pH 6.5, 200 mM NaCl, 0.01% Tween-20, 1% DMSO) with 500 μM 4-methylumbelliferyl-β-D-GlcNAc (4MU-GlcNAc), as substrate and 50 nM BtGH84. Reactions were initiated by addition of 10 μl of substrate, to a final concentration of 500 μM, followed by 5 s of shaking. Fluorescent 4-methylumbelliferyl release was recorded continuously at 355 nm excitation and 460 nm emission for 20 s using a BMG PolarStar Optima plate reader. Rates were calculated using Sigmaplot as the slope of the curve of the collected data. Corrections were made to the detected gradients to adjust for the inner filter effect of 4MU-GlcNAc and convert the gradients into units of μmol min-1 according to a standard curve of 4MU. […]
Kinetic experiments using 4MU-GlcNAc were carried out in an analogous manner except that reactions were initiated by a 10 μl injection of BtGH84, to a final concentration of 50 nM, in a well containing the substrate at the desired concentration. Values quoted throughout are mean and standard deviation of three independent […]
Apparent KM and Vmax values were calculated from a Michalis-Menten curve fit to 8-10 point substrate titrations at a constant concentration of the activator. The covariation experiments used the same range of substrate concentrations across an activator concentration range of 50 µM to 2 mM. The data obtained from these experiments was fit to the nonessential activator equation: […]
Here, [S] is the concentration of the […], [A] the concentration of the activator, α modifies KM, β modifies Vmax and KA is the half-max concentration of the activator. […]

The target in experiment [2] is T1, BtGH84. The experiment in a line: Isothermal titration calorimetry (ITC). The format is binding. The following applies: 25°C. Here is the method:
as §1, with “4MU. The initial slopes were fitted to four-parameter sigmoidal dose response curves using SigmaPlot and the AC50 values extracted.” for “4MU.”
Apparent KM and Vmax values were calculated from a Michalis-Menten curve fit to 8-10 point substrate titrations at a constant concentration of the activator. […]
For orientation: In ITC the heat of successive injections is recorded.

Experiment [3] deals with T1, BtGH84. The experiment can be described thus: Differential scanning fluorimetry (DSF). Format: binding. The following applies: melting temperature of BtGH84; PUGNAc 200 μM. The protocol: constant (Ka) were obtained from this fitting, and were used to calculate the Gibbs free energy (ΔG) and […]
Crystallisation and structure determination
BtGH84 crystals were grown using the sitting-drop vapour diffusion method. 1 μl of 12 mg/ml BtGH84 was mixed with 1 μl of reservoir solution (0.1 M imidazole pH 8.0, 10% PEG8000 (w/v), 3% trimethylamine N-oxide dehydrate, 12% ethylene glycol) and the crystals were allowed to grow at room temperature for at least 2 days. Crystal soaking was performed by gradually adding well solution containing 10 mM PUGNac and 50 mM activator 2, and 10% DMSO. Crystals were picked up with a nylon fibre loop (Hampton Research) and plunged into liquid nitrogen. Data were collected at Diamond beamline I04 using a Pilatus 6M-F detector (Dectris) at 100 K. An oscillation range of 0.1° degree was chosen and 180° were collected. Data were indexed, integrated and scaled using XDS.[5] Indexing was chosen to be consistent with previous collected data using Pointless[6] and a direct refinement of the model against the data was carried out. […] The quality of the final model was evaluated using the MolProbity-Server.[10] […]
DSF experiments were performed in 96-well polypropylene PCR plates (Agilent 401334) with a final well volume of 25 µl. […] Data was analysed with a combination of the Agilent MxPro software, MTSA,[11] and the DSF analysis spreadsheet in Excel.[12] […]
A general note: DSF heats the sample and reads unfolding from a dye or from intrinsic fluorescence.

Broadly, the Kd is the constant that tells how readily two partners part at equilibrium.

T1 sequence (Q89ZI2 22-737, change not shown): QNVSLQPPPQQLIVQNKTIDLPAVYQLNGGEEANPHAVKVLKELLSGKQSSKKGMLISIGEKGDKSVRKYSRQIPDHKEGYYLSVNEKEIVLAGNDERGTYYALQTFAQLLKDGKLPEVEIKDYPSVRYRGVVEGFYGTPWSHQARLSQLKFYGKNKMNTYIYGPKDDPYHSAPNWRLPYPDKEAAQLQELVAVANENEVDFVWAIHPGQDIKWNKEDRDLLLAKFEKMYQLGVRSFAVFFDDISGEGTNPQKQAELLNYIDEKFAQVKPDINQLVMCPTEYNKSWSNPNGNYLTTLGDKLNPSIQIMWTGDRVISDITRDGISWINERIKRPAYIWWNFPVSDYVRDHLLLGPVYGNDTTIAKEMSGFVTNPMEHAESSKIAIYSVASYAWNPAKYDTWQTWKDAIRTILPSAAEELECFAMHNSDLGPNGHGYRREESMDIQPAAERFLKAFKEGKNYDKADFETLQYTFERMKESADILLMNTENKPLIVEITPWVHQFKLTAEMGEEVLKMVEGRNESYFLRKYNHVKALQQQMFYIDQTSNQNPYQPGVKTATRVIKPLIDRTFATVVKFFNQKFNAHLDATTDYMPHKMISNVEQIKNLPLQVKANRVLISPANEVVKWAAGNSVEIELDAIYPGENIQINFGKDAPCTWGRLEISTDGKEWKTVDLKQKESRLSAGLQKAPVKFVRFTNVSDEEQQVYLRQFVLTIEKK

`CC(=O)N[C@H]1/C(=N/OC(=O)Nc2ccccc2)O[C@H](CO)[C@@H](O)[C@@H]1O` [PUGNAc, O-(2-Acetamido-2-deoxy-D-glucopyranosylidene) amino-Z-N-phenylcarbamate]: the “IC50 (change)” value at BtGH84 [1] was “reduced”. In addition, the Kd on BtGH84 [2] (in the absence of 2) was 3900 ± 120 nM; on BtGH84 [2] (in the presence of 2 (10 mM)), 1100 ± 240 nM. Also, the “increase of Tm” value on BtGH84 [3] turned out to be 3 °C.

For the origin of these results see paper PMC4501319, “Discovery of Selective Small-Molecule Activators of a Bacterial Glycoside Hydrolase” (Angewandte Chemie (International Ed. in English), 2014).
